From PMC10539361, “Allosteric modulation of the fish taste receptor type 1 (T1R) family by the extracellular chloride ion” (Scientific Reports, 2023)

Molecular target: T1, mfT1R2a/mfT1R3 (Oryzias latipes, UniProt Q2MHK2+Q2MHK5)
T1 sequence (Q2MHK5 20-819): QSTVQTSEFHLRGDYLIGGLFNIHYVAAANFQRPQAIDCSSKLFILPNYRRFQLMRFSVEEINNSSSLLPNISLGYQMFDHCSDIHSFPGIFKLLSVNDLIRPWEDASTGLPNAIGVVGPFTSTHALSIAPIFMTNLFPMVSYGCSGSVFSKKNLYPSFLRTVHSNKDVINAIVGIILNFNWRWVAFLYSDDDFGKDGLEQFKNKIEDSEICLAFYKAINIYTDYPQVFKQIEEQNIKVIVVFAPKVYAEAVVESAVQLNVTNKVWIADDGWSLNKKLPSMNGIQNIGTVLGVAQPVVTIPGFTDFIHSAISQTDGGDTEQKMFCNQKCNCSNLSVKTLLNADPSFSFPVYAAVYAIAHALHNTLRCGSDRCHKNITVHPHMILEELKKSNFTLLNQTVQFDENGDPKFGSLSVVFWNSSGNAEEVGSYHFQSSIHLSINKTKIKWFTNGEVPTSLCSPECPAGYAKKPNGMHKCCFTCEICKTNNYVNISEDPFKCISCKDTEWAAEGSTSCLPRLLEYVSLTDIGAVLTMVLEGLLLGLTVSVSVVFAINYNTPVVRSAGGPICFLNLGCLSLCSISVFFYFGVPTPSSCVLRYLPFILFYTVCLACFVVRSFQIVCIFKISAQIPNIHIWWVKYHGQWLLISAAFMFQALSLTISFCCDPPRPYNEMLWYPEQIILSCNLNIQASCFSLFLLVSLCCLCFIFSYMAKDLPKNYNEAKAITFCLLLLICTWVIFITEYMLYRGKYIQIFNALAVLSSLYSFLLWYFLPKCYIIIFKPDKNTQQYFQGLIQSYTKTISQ
T1 sequence (Q2MHK2 20-853): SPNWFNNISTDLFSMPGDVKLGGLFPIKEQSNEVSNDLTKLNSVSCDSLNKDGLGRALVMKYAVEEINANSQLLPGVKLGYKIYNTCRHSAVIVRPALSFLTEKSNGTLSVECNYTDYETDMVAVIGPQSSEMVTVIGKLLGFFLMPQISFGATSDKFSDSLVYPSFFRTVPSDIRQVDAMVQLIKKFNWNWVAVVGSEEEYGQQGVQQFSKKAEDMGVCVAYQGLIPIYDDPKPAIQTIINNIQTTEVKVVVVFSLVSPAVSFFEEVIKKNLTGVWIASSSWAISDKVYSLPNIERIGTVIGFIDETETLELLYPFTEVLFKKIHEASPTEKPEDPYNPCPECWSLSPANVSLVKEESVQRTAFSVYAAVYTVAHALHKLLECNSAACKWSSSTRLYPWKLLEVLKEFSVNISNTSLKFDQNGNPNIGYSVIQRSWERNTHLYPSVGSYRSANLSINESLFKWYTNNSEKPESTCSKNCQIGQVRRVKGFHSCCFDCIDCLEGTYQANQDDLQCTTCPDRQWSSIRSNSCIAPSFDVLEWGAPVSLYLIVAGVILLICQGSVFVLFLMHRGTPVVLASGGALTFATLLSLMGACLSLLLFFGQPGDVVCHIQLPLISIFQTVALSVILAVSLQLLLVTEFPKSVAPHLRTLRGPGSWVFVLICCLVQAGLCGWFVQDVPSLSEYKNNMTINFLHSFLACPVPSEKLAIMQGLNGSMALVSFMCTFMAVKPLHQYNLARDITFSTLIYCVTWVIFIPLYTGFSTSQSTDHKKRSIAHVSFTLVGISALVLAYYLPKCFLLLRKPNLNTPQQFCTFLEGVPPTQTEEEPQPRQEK
Experiment: Effect of anions, cations and osmotic pressure on cellular responses, cells in 10 mM Cl- buffer, mfT1R2a/mfT1R3
Format: cell-based, medaka fish
Details: for response to fixed concentration of L-Gln on coapplication: coapplied with 200 µM L-Gln, final [Cl-]o up to 60 mM
Method: Cells were seeded in 96-well plates coated with ε-poly-L-lysine at approximately 70,000 cells per well. […] Fluorescence changes were monitored at 2 s intervals, as described above. […] Three independent experiments were conducted for each receptor, and representative results are shown as the mean ± SEM (n = 3 replicates). Statistical tests were conducted using KyPlot version 6.0 (KyensLab Inc., Tokyo, Japan). Statistical significance was set at p < 0.05.

Structure (SMILES) | additional anion concentration needed to significantly increase the response intensity to L-Gln (added to 10 mM Cl- buffer with 200 µM L-Gln) | response to fixed concentration of L-Gln on coapplication (cells in 10 mM Cl- buffer) | cellular response to the salt alone (without agonist, cells in 10 mM Cl- buffer)
[Cl-].[Na+] [NaCl] | 30 mM | enhanced | did not elicit
O=C([O-])[C@H](O)[C@@H](O)[C@H](O)[C@H](O)CO.[Na+] [Na-gluconate, sodium gluconate] | – | did not enhance | –
